# ChEMBL document CHEMBL5608176, “Binding sites and design strategies for small molecule GLP-1R agonists” (Eur J Med Chem, 2024)
# Assays:
# [1] = biological target: Voltage-gated inwardly rectifying potassium channel KCNH2 (Homo sapiens, UniProt Q12809); experiment: Inhibition of hERG potassium channel by patch clamp assay; type: toxicity
# [2] = biological target: Glucagon-like peptide 1 receptor (Homo sapiens, UniProt P43220); experiment: Agonist activity at human GLP-1 expressed in HEK293 cells assessed as […] in intracellular cAMP accumulation incubated for 60 mins by HTRF assay; type: functional, cell-based
# Glucagon-like peptide 1 receptor, sequence (P43220 whole entry): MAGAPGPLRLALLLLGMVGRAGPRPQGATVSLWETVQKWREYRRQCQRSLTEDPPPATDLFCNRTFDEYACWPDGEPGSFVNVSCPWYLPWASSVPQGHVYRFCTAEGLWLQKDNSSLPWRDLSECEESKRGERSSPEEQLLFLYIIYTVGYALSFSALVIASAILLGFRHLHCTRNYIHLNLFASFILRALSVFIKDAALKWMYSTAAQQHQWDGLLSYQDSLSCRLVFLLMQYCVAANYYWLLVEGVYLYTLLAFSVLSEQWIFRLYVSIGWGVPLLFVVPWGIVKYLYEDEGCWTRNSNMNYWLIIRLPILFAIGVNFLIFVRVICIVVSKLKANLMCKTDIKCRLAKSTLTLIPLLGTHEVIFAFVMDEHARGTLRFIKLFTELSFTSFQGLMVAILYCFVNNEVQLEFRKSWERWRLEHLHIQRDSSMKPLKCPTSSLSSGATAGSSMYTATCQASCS
# Voltage-gated inwardly rectifying potassium channel KCNH2, sequence (Q12809 whole entry): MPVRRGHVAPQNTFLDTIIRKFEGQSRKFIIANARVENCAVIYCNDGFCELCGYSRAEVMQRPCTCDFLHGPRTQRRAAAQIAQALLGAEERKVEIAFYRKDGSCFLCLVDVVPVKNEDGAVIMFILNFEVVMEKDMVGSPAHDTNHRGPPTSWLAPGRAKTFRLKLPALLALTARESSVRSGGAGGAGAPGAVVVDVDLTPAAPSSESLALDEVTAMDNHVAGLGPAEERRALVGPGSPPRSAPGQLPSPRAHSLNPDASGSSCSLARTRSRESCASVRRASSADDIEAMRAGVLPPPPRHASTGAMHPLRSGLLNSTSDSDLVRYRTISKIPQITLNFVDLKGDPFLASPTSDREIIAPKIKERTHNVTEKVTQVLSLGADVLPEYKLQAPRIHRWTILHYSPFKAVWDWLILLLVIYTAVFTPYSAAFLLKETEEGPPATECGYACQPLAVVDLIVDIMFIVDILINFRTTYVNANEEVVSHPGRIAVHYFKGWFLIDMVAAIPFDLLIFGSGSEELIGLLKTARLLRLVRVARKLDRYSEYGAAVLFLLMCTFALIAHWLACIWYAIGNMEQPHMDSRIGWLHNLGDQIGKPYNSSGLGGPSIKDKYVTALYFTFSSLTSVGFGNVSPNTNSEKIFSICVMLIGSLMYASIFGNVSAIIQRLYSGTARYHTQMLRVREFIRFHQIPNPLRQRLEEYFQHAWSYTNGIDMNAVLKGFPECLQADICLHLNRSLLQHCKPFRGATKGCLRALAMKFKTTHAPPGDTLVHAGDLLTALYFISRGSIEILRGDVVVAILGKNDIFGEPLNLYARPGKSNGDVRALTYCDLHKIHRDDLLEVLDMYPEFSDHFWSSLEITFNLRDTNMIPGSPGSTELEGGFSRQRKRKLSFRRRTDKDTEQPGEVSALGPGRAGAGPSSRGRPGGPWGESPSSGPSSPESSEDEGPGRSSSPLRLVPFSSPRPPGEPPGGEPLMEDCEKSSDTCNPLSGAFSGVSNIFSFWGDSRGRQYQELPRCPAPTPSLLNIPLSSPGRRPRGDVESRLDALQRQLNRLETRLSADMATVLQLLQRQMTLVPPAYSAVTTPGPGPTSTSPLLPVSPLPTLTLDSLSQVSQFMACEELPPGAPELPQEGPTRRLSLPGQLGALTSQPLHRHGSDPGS
SMILES,EC50 [1] [nM],EC50 [2] [nM]
Cn1c(CN2CCC(c3cccc(OCc4ccc(Cl)cc4F)n3)CC2)nc2ccncc21,77,–
COc1nccc(-c2ccc3c(c2)cc(C(=O)N2CCc4nn(-c5cc(C)c(F)c(C)c5)c(-n5ccn(-c6ccc7c(cnn7C)c6F)c5=O)c4[C@@H]2C)n3[C@@]2(c3noc(=O)[nH]3)C[C@@H]2C)c1C,–,2.7
COCCn1ncc2c(F)c(-n3ccn(-c4c5c(nn4-c4cc(C)c(F)c(C)c4)CCN(C(=O)c4cc6cc([C@H]7CCOC(C)(C)C7)ccc6n4[C@@]4(c6noc(=O)[nH]6)C[C@@H]4C)[C@H]5C)c3=O)ccc21,–,2.1
